Experimental data: patent US7179825B2, “Retinoic acid mimetic anilides” (Janssen Pharmaceutica N.V., priority 1997, dated 2007)

What follows are compounds tested on Ovariectomized rats (assay: Vaginal keratinization test on ovariectomized rats (Example C.2)). Details: Rattus norvegicus, po, estradiol undecylate induced keratinization, per os once daily on days 1-3, active dose = 50% of rats show complete suppression, read-out: LAD (lowest active dose).
Assay type: in vivo
In short: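 Ovariectomized rats given s.c. estradiol undecylate (100 μg per 100 g body weight in sesame oil), then oral compound once daily on days 1-3 (vehicle PEG 200). Vaginas assessed histologically one day after last dose; lowest active dose (mg/kg) is the dose giving complete keratinization suppression in 50% of rats.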

SMILES | minimal effective dose [mg/kg]
CC(C)C(c1ccc(NC(=S)NC(=O)c2ccccc2)cc1)n1ccnc1 (racemic) [Compound 698, (±)-N-benzoyl-N′-[4-[1-(1H-imidazol-1-yl)-2-methylpropyl]phenyl]thiourea] | 20

Same assay, conditions: estradiol undecylate induced keratinization, per os once daily on days 1-3, active dose = 50% of rats show complete suppression

SMILES | LAD (lowest active dose) [mg/kg]
CCOc1ccc(CC(=O)Nc2ccc(C(C(CC)CC)n3ccnc3)cc2)cc1C (racemic) [Compound 125] | 2.50
CC(C)CC(c1ccc(NC(=O)Cc2ccc(Cl)cc2)cc1)n1ccnc1 (racemic) [Compound 359] | >10.00
CC(C)C(c1ccc(NC(=O)NCc2ccc(Cl)cc2)cc1)n1ccnc1 (stereo not shown) [Compound 273] | >10.00
CCC(CC)C(c1ccc(NC(=O)Cc2ccc(C)c(OC)c2)cc1)n1cncn1 (racemic) [Compound 84] | >2.50
CCC(CC)C(c1ccc(NC(=O)Cc2ccc(Cl)cc2)cc1)n1ccnc1 (racemic) [Compound 87] | 1.25
CC(C)C(c1ccc(NC(=O)Cc2ccccc2)cc1)n1ccnc1 (stereo not shown) [Compound 650] | 10.00
CC(C)C(c1ccc(NC(=O)C2(c3ccccc3)CCCC2)cc1)n1ccnc1 (stereo not shown) [Compound 191] | >10.00
C/C(=C\C1CCCCC1)C(=O)Nc1ccc(C(C(C)C)n2ccnc2)cc1 (stereo not shown) [Compound 581] | 20.00
CCC(CC)C(c1ccc(NC(=O)C2Oc3ccccc3O2)cc1)n1ccnc1 (stereo not shown) [Compound 34] | 2.50
CCC(CC)C(c1ccc(NC(=O)Cc2cccc(OC)c2OC)cc1)n1ccnc1 (racemic) [Compound 102] | 5.00
CC(C)C(c1ccc(NC(=O)Cc2ccsc2)cc1)n1ccnc1 (racemic) [Compound 245] | 10.00
O=C(Nc1ccc(C(c2cccc(C(F)(F)F)c2)n2ccnc2)cc1)Nc1cc(F)ccc1F (racemic) [Compound 709] | 5.00
CC(C)C(c1ccc(NC(=O)Cc2ccc(F)cc2)cc1)n1cncn1 (stereo not shown) [Compound 132] | 5.00
COc1ccc(CC(=O)Nc2ccc(C(C(C)C)n3ccnc3)cc2)cc1 (stereo not shown) [Compound 662] | 5.00
O=C(Cc1ccccc1)Nc1ccc(C(c2cccc(C(F)(F)F)c2)n2cncn2)cc1 (racemic) [Compound 614] | >20.00
C/C(=C\c1ccncc1)C(=O)Nc1ccc(C(C(C)C)n2ccnc2)cc1 (stereo not shown) [Compound 576] | 10.00
CC(Sc1ccccc1)C(c1ccc(NC(=O)Cc2ccc(Cl)cc2)cc1)n1ccnc1 (single isomer, unassigned) [Compound 376] | 2.50
CC(C)C(c1ccc(NC(=O)N(C)Cc2ccccc2)cc1)n1ccnc1 (racemic) [Compound 263] | >10.00
COc1ccc(CC(=O)Nc2ccc(C(C(C)N(C)C)n3ccnc3)cc2)cc1C (single isomer, unassigned) [Compound 313] | 2.50
CCC(CC)C(c1ccc(NC(=O)Cc2ccc(F)cc2)cc1)n1cncn1 (racemic) [Compound 68] | 5.00
CCN(CC)C(C)C(c1ccc(NC(=O)Cc2ccc(OC)c(OC)c2)cc1)n1ccnc1 (single isomer, unassigned) [Compound 383] | >2.50
CCC(CC)C(c1ccc(NC(=O)Cc2ccc(OC)c(Cl)c2)cc1)n1ccnc1 (racemic) [Compound 116] | 2.50
CCC(CC)C(c1ccc(NC(=O)Cc2cc(OC)ccc2OC)cc1)n1ccnc1 (racemic) [Compound 98] | 5.00
CCN(CC)C(C)C(c1ccc(NC(=O)Cc2ccc(OC)c(OC)c2)cc1)n1cncn1 (single isomer, unassigned) [Compound 649] | 5.00
CCC(CC)C(c1ccc(NC(=O)Cc2ccc(OCc3ccncc3)cc2)cc1)n1ccnc1 (stereo not shown) [Compound 127] | >2.50

Each compound was assayed on metabolism of retinoic acid in human breast cancer cells (assay: Inhibition of retinoic acid (RA) metabolism (Example C.1)). Details: MCF7; MCF-7 human breast cancer cells, 3H-RA as substrate; concentration needed to reduce the amount of metabolites to 50% of the control.
Assay type: cell-based
In short: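 MCF-7 cells, pre-stimulated with RA the day before, incubated with ³H-RA substrate and test compound in 1% DMSO. Polar ³H-metabolites separated from unmetabolized RA and counted by scintillation. IC50 is the concentration cutting metabolite formation to 50% of control, with blank run alongside.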

IC50 [nM] | SMILES
39.6 | CC(C)C(c1ccc(NC(=S)NC(=O)c2ccccc2)cc1)n1ccnc1 (racemic) [Compound 698, (±)-N-benzoyl-N′-[4-[1-(1H-imidazol-1-yl)-2-methylpropyl]phenyl]thiourea]

Same assay, conditions: MCF-7 human breast cancer cells, 3H-RA as substrate; concentration needed to reduce the amount of metabolites to 50% of the control

IC50 [nM] | SMILES
0.194 | CCOc1ccc(CC(=O)Nc2ccc(C(C(CC)CC)n3ccnc3)cc2)cc1C (racemic) [Compound 125]
6.25 | CC(C)CC(c1ccc(NC(=O)Cc2ccc(Cl)cc2)cc1)n1ccnc1 (racemic) [Compound 359]
52.7 | CC(C)C(c1ccc(NC(=O)NCc2ccc(Cl)cc2)cc1)n1ccnc1 (stereo not shown) [Compound 273]
1.74 | CCC(CC)C(c1ccc(NC(=O)Cc2ccc(C)c(OC)c2)cc1)n1cncn1 (racemic) [Compound 84]
0.28 | CCC(CC)C(c1ccc(NC(=O)Cc2ccc(Cl)cc2)cc1)n1ccnc1 (racemic) [Compound 87]
4.86 | CC(C)C(c1ccc(NC(=O)Cc2ccccc2)cc1)n1ccnc1 (stereo not shown) [Compound 650]
> 100 | CC(C)C(c1ccc(NC(=O)C2(c3ccccc3)CCCC2)cc1)n1ccnc1 (stereo not shown) [Compound 191]
> 100 | C/C(=C\C1CCCCC1)C(=O)Nc1ccc(C(C(C)C)n2ccnc2)cc1 (stereo not shown) [Compound 581]
1.03 | CCC(CC)C(c1ccc(NC(=O)C2Oc3ccccc3O2)cc1)n1ccnc1 (stereo not shown) [Compound 34]
0.0678 | CCC(CC)C(c1ccc(NC(=O)Cc2cccc(OC)c2OC)cc1)n1ccnc1 (racemic) [Compound 102]
2.79 | CC(C)C(c1ccc(NC(=O)Cc2ccsc2)cc1)n1ccnc1 (racemic) [Compound 245]
2.4 | O=C(Nc1ccc(C(c2cccc(C(F)(F)F)c2)n2ccnc2)cc1)Nc1cc(F)ccc1F (racemic) [Compound 709]
4.49 | CC(C)C(c1ccc(NC(=O)Cc2ccc(F)cc2)cc1)n1cncn1 (stereo not shown) [Compound 132]
0.358 | COc1ccc(CC(=O)Nc2ccc(C(C(C)C)n3ccnc3)cc2)cc1 (stereo not shown) [Compound 662]
278 | O=C(Cc1ccccc1)Nc1ccc(C(c2cccc(C(F)(F)F)c2)n2cncn2)cc1 (racemic) [Compound 614]
20.1 | C/C(=C\c1ccncc1)C(=O)Nc1ccc(C(C(C)C)n2ccnc2)cc1 (stereo not shown) [Compound 576]
< 0.1 | CC(Sc1ccccc1)C(c1ccc(NC(=O)Cc2ccc(Cl)cc2)cc1)n1ccnc1 (single isomer, unassigned) [Compound 376]
4.66 | CC(C)C(c1ccc(NC(=O)N(C)Cc2ccccc2)cc1)n1ccnc1 (racemic) [Compound 263]
0.02 | COc1ccc(CC(=O)Nc2ccc(C(C(C)N(C)C)n3ccnc3)cc2)cc1C (single isomer, unassigned) [Compound 313]
1.72 | CCC(CC)C(c1ccc(NC(=O)Cc2ccc(F)cc2)cc1)n1cncn1 (racemic) [Compound 68]
0.729 | CCN(CC)C(C)C(c1ccc(NC(=O)Cc2ccc(OC)c(OC)c2)cc1)n1ccnc1 (single isomer, unassigned) [Compound 383]
0.678 | CCC(CC)C(c1ccc(NC(=O)Cc2ccc(OC)c(Cl)c2)cc1)n1ccnc1 (racemic) [Compound 116]
1.64 | CCC(CC)C(c1ccc(NC(=O)Cc2cc(OC)ccc2OC)cc1)n1ccnc1 (racemic) [Compound 98]
7.32 | CCN(CC)C(C)C(c1ccc(NC(=O)Cc2ccc(OC)c(OC)c2)cc1)n1cncn1 (single isomer, unassigned) [Compound 649]
0.0285 | CCC(CC)C(c1ccc(NC(=O)Cc2ccc(OCc3ccncc3)cc2)cc1)n1ccnc1 (stereo not shown) [Compound 127]
